Reference: US20060128810A1, “Remedies for allergic diseases” (Kyoto University, priority 2002, published 2006)

Tests used:
[1] = tested on: OVA-sensitized mouse asthma model; assay: OVA-sensitized mouse asthma model, number of inflammatory cells in BALF; assay type: in vivo, mouse (C57/BL6); details: subcutaneous; for neutrophil number in BALF: FIG. 2
Description: An asthma reaction was induced using a wild-type mouse (C57/BL6) that had previously been sensitized with an antigen of OVA twice (day 0 and day 12) by inhalation sensitization at intervals of four days a total of three times (day 22, day 26, and day 30). Subsequently, the change in the number of inflammatory cells in BALF that was an indicator of an allergic reaction was examined.
That is, a compound having an agonistic activity to EP3 receptor is effective in therapy of an allergic disease such as asthma, and a selective agonistic compound to EP3 receptor can be expected to induce a more remarkable therapeutic effect.

[2] = tested on: extracted lung of a sensitized wild-type mouse; assay: Histamine and LT release from extracted lung of sensitized wild-type mouse by in vitro antigen stimulation
Description: The inventors of the present invention have studied on involvement of EP3 receptor in allergy reactions using the method already reported in a literature (Science, 287, 2013-(2000)). Specifically, the asthma condition was induced by inhalation of ovalbumin (hereinafter, abbreviated as OVA) in an EP3 receptor-deficient mouse, and the lung condition was analyzed. […] In addition, the suppression of the amount of histamine released from the sensitized lung by the agonist for the EP3 receptor causes only improvement of the portion enhanced by indomethacin. […] The inventors of the present invention have analyzed an EP3 (one of the PGE2 receptor subtypes) gene-deficient mouse and have already elucidated that EP3 is involved in crisis of an allergic reaction from the results of significant increase in the amount of infiltrated eosinophilics in a bronchoalveolar lavage fluid (hereinafter, abbreviated as BALF), and more significant increase in the number of infiltrated cells into a lung tissue and in the amount of Th2 cytokine in the mouse. Furthermore, they have found out that the amount of a chemical mediator that is released by in vitro antigenic stimulation of the lung of a sensitized wild-type mouse is increased by indomethacin which is a PGH-producing enzyme (cyclooxygenase) inhibitor and is suppressed by an agonist for EP3 receptor. […]

[3] = 10 μg/kg twice a day, day 22 to day 33, FIG. 1
[4] = 10 μg/kg twice a day, day 22 to day 33

SMILES | eosinophil number in BALF [1, 3] | neutrophil number in BALF [1, 4] | eosinophil number in BALF ([1]; 200 μg/kg twice a day, FIG. 3) | amount of LT released from the extracted lung [2] | amount of histamine released from the extracted lung [2]
CCCCC(C)(C)[C@H](O)/C=C/[C@H]1[C@H](O)CC(=O)[C@@H]1C/C=C\CCCC(=O)O [dmPGE2, 16,16-dimethyl PGE2] | no significant effect | no significant effect | significant effect | – | –
CCCCC[C@@H](/C=C/[C@H]1[C@H](OC)CC(=O)[C@@H]1C/C=C\CCCC(=O)O)OC [compound (I-1), 11α,15α-dimethoxy-9-oxoprosta-5Z,13E-dienoic acid] | decreased significantly | decreased significantly | – | – | –
COc1ccc2c(c1)c(CC(=O)O)c(C)n2C(=O)c1ccc(Cl)cc1 [indomethacin] | – | – | – | increase | increase
